Test results taken from patent US20250170248A1, “SMARCA DEGRADERS AND USES THEREOF” (Kymera Therapeutics, Inc., priority 2021, published 2025).

Assays:
Assay type in all cases: cell-based
SMARCA2 [1] = target: T1, SMARCA2 (Homo sapiens, UniProt P51531); assay: SMARCA2 Western blot degradation in MV4-11 cells; set-up: SMARCA2/SMARCA4 protein degradation selectivity in MV4-11 cells; endogenous in cells; host or cells: MV4-11; conditions: for SMARCA2 MSD MV411 degradation 24 h: average Dmax % / DC50 / Selectivity in MV411: MV4-11 cells; for SMARCA2 MSD MV411 degradation 24 h: average Dmax % / DC50 / Dmax: 24 h; for DC50: read-out: SMARCA2 MSD MV411 degradation 24 h: Mean external-Abs DC50; for Selectivity in MV411: SMARCA2/4 selectivity; for Dmax: MV4-11, MV4-11 cells, read-out: SMARCA2 MSD MV411 degradation 24 h: average Dmax %
SMARCA2 [2] = target: T1, SMARCA2; assay: MSD SMARCA2 degradation in A549 cell line; conditions: for SMARCA2 MSD A549 degradation 24 h: Average Dmax % / DC50: A549 cells; for DC50 / Dmax: 24 h; for DC50: read-out: SMARCA2 MSD A549 degradation 24 h: Average external-Abs DC50; for Dmax: A549, A549 cells
How it was run: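 SMARCA2 protein remaining after 24 h exposure of A549 cells (top concentration 1000 nM, 3-fold dilutions) was measured by MSD electrochemiluminescence immunoassay of cell lysates. Results are given as binned DC50 and maximal degradation (Dmax) codes.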

SMARCA4 = target: T2, SMARCA4 (Homo sapiens, UniProt P51532); assay: SMARCA4 Western blot degradation in MV4-11 cells; conditions: for SMARCA4 MSD MV411 degradation 24 h: average Dmax % / DC50: MV4-11 cells; for DC50 / Dmax: 24 h; for DC50: read-out: SMARCA4 MSD MV411 degradation 24 h: Mean external-Abs DC50; for Dmax: MV4-11, MV4-11 cells, read-out: SMARCA4 MSD MV411 degradation 24 h: average Dmax %
T2 construct: SMARCA2/SMARCA4 protein degradation selectivity in MV4-11 cells; endogenous in cells; host or cells: MV4-11
How it was run: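 Fluorescent LI-COR imaging of Western blots quantified SMARCA2 and SMARCA4 protein remaining in MV4-11 cells after 24 h of compound treatment. β-actin was the loading control, and DC50, Dmax and SMARCA2/4 selectivity are given as letter-coded ranges.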

T1 sequence (P51531 whole entry): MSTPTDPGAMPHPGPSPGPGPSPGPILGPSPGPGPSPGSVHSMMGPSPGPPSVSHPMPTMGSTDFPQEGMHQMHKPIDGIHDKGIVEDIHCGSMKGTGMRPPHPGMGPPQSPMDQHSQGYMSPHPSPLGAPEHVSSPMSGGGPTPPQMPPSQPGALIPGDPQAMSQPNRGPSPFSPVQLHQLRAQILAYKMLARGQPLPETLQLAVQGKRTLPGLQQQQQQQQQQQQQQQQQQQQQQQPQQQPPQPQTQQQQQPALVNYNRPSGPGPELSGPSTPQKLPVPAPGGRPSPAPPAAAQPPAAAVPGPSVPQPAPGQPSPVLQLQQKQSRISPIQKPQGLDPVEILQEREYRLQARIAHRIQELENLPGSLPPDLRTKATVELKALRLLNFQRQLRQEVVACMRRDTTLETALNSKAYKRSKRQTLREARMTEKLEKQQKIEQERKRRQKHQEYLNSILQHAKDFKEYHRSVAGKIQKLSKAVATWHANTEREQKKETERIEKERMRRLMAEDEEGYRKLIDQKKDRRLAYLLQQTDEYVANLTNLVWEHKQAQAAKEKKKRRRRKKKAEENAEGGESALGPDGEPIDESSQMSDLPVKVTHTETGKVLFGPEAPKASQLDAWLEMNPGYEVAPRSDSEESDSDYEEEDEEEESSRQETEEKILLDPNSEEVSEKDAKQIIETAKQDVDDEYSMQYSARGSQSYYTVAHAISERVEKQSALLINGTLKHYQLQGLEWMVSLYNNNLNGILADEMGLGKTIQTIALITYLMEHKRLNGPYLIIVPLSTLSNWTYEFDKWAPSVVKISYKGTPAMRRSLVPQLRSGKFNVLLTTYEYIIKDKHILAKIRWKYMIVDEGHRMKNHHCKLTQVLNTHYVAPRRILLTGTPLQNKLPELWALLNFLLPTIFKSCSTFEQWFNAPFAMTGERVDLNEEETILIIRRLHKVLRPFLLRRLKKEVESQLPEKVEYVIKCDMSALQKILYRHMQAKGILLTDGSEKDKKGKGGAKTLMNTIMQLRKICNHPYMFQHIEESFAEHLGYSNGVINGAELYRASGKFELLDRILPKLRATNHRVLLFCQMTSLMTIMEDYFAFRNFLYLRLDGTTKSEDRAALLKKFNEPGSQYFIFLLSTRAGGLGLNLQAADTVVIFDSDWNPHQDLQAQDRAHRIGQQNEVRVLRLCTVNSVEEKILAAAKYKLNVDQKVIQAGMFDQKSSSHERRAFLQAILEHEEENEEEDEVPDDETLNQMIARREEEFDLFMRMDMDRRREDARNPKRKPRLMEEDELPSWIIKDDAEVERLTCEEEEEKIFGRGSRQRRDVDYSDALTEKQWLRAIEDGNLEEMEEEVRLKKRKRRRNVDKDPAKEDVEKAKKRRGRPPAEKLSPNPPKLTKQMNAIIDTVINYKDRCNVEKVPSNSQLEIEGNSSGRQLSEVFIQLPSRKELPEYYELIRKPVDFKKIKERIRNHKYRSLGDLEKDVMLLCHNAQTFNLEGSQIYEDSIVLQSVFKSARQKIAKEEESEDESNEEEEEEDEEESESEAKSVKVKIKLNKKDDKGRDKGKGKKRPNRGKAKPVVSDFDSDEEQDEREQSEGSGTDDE
T2 sequence (P51532 whole entry): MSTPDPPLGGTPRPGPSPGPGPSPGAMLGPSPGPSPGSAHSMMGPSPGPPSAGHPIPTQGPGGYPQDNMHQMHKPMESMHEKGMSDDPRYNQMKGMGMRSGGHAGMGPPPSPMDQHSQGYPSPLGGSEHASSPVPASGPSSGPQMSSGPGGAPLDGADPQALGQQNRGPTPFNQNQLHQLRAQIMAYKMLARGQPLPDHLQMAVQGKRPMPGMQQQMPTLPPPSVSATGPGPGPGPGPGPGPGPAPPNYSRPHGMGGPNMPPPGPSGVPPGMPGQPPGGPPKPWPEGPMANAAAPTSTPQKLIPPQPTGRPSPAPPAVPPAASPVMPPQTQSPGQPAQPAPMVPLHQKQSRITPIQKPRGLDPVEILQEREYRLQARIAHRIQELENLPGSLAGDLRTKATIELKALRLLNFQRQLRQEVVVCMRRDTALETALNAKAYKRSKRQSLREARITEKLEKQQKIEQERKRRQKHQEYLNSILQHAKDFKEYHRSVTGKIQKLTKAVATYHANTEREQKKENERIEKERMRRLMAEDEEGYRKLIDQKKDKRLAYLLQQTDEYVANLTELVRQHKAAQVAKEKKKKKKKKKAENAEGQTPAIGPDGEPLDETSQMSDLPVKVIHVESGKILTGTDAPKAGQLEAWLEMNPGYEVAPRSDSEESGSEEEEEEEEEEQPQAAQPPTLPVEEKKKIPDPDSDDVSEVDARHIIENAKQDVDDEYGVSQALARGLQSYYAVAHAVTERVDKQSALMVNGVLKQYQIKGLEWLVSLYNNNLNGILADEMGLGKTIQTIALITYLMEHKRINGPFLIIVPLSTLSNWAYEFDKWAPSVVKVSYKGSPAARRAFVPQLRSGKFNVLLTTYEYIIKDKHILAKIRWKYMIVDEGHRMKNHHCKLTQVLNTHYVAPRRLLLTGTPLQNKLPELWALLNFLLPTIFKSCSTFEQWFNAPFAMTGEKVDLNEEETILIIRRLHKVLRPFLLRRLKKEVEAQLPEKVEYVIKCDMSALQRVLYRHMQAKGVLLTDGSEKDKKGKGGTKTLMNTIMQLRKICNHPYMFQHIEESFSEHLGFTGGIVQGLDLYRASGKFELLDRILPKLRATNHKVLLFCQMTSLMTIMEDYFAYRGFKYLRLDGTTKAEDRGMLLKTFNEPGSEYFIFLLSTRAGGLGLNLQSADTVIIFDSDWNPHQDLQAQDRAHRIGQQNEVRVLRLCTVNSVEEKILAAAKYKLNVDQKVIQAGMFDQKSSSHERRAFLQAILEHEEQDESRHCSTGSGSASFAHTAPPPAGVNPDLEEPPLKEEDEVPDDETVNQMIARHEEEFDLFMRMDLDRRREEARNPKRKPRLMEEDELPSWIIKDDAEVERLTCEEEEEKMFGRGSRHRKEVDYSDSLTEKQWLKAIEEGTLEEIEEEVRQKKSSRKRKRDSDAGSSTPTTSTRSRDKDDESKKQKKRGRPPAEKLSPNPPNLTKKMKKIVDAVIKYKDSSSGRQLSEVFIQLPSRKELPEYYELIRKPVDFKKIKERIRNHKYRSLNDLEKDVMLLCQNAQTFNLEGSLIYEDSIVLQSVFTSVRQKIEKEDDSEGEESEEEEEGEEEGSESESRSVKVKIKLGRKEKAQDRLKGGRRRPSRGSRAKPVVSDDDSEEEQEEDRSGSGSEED

| SMILES | SMARCA2 MSD MV411 degradation 24 h: average Dmax % (SMARCA2 [1]) | DC50 (SMARCA2 [1]) | Selectivity in MV411 (SMARCA2 [1]) | SMARCA2 MSD A549 degradation 24 h: Average Dmax % (SMARCA2 [2]) | DC50 (SMARCA2 [2]) | SMARCA4 MSD MV411 degradation 24 h: average Dmax % (SMARCA4) | DC50 (SMARCA4) | Dmax (SMARCA2 [1]) | Dmax (SMARCA2 [2]) | Dmax (SMARCA4) |
| --- | --- | --- | --- | --- | --- | --- | --- | --- | --- | --- |
| Cc1ncsc1-c1ccc(CNC(=O)[C@@H]2C[C@@H](O)CN2C(=O)[C@@H](NC(=O)[C@H]2CC3(C2)C[C@H](N2CCC(N4CCC(c5ccc6[nH]c7nnc(-c8ccccc8O)cc7c6c5)CC4)CC2)C3)C(C)(C)C)cc1 (single isomer, unassigned) [I-29] | C (C (50-70% degradation)) | 10 to 100 nM | B (B (>100-500 fold)) | C (C (50-70% degradation)) | > 100 nM | D (D (<50% degradation)) | > 100 nM |  |  |  |
| C#Cc1ccc(C2(NC(=O)[C@@H]3C[C@@H](O)CN3C(=O)[C@@H](NC(=O)N3CC4(CC(N5CCC(N6CCC(N7CCc8[nH]c9nnc(-c%10ccccc%10O)cc9c8[C@H]7C)CC6)CC5)C4)C3)C(C)(C)C)CC2)cc1 [I-210] |  | 10 to 100 nM | C (C (10-100 fold)) |  | > 100 nM |  | > 100 nM | 50 to 70% | > 90% | < 50% |
| Cc1ncsc1-c1ccc(CNC(=O)[C@@H]2C[C@@H](O)CN2C(=O)[C@@H](NC(=O)C2(F)CC2)C(C)(C)C)c(O[C@H]2CC[C@@H](N3CCC(c4cnc(N5CCc6[nH]c7nnc(-c8ccccc8O)cc7c6[C@@H]5C)nc4)CC3)CC2)c1 (single isomer, unassigned) [I-34] |  | 10 to 100 nM | B (B (>100-500 fold)) |  | > 100 nM |  | > 100 nM | < 50% | 70 to 90% | 50 to 70% |
| C#CCOc1cc(C(C(=O)N2C[C@H](O)C[C@H]2C(=O)NCc2ccc(-c3scnc3C)cc2O[C@H]2CC[C@@H](N3CCC(c4cnc(N5CCc6[nH]c7nnc(-c8ccccc8O)cc7c6[C@H]5C)nc4)CC3)CC2)C(C)C)on1 (single isomer, unassigned) [I-37] |  | < 1 nM | D (D (<10 fold)) |  | < 10 nM |  | < 1 nM | > 90% | > 90% | > 90% |
| C#Cc1ccc([C@H](C)NC(=O)[C@@H]2C[C@@H](O)CN2C(=O)[C@@H](NC(=O)[C@H]2CCC3(CC2)C[C@H](N2CCN(c4cnc(N5CCN6c7cc(-c8ccccc8O)nnc7NC[C@H]6C5)nc4)CC2)C3)C(C)(C)C)cc1 (single isomer, unassigned) [I-234] | B (B (>70-90% degradation)) | 10 to 100 nM | C (C (10-100 fold)) | A (A (>90% degradation)) | 50 to 100 nM | C (C (50-70% degradation)) | > 100 nM |  |  |  |
| Cc1ncsc1-c1ccc(CNC(=O)[C@@H]2C[C@@H](O)CN2C(=O)[C@@H](NC(=O)N2CC3(CCC(N4CCC(c5cnc(N6CCc7[nH]c8nnc(-c9ccccc9O)cc8c7C6C)nc5)CC4)CC3)C2)C(C)(C)C)cc1 (stereo partly drawn) [I-62] |  | > 100 nM | C (C (10-100 fold)) |  | > 100 nM |  | > 100 nM | < 50% | 70 to 90% | < 50% |
| C#Cc1ccc(CNC(=O)[C@@H]2C[C@@H](O)CN2C(=O)[C@@H](NC(=O)[C@H]2CC3(C2)C[C@H](N2CCC(N4CCC(N5CCN6c7cc(-c8ccccc8O)nnc7NC[C@H]6C5)CC4)CC2)C3)C(C)(C)C)c(O)c1 (single isomer, unassigned) [I-241] |  | 1 to 10 nM | C (C (10-100 fold)) |  | 50 to 100 nM |  | 10 to 100 nM | > 90% | > 90% | 70 to 90% |
| CC(C)C(C(=O)N1C[C@H](O)C[C@H]1C(=O)N[C@@H](C)C#Cc1ccccc1)c1cc(OCCN2CCC(N3CCC(N4CCC(CN5CCN6c7cc(-c8ccccc8O)nnc7NC[C@H]6C5)CC4)CC3)CC2)no1 (stereo partly drawn) [I-283] |  | > 100 nM | D (D (<10 fold)) |  | > 100 nM |  | > 100 nM | < 50% | 70 to 90% | < 50% |
| Cc1cc(Cl)ccc1C#CCNC(=O)[C@@H]1C[C@@H](O)CN1C(=O)[C@@H](NC(=O)[C@H]1CCC2(CC1)C[C@H](N1CCC(c3cnc(N4CCN5c6cc(-c7ccccc7O)nnc6NC[C@H]5C4)nc3)CC1)C2)C(C)(C)C (single isomer, unassigned) [I-104] |  | > 100 nM | C (C (10-100 fold)) | A (A (>90% degradation)) | > 100 nM |  | > 100 nM | < 50% |  | 70 to 90% |
| C#Cc1ccc(CNC(=O)[C@@H]2C[C@@H](O)CN2C(=O)[C@@H](NC(=O)N2CC3(CC(N4CCC(N5CCC(N6CCc7[nH]c8nnc(-c9ccccc9O)cc8c7[C@@H]6C)CC5)CC4)C3)C2)C(C)(C)C)cc1 [I-180] |  | 10 to 100 nM | D (D (<10 fold)) |  | > 100 nM |  | > 100 nM | 70 to 90% | > 90% | > 90% |
| Cc1ncsc1-c1ccc(CNC(=O)[C@@H]2C[C@@H](O)CN2C(=O)[C@@H](NC(=O)[C@H]2CC3(C2)C[C@H](N2CCC(c4ccnc(N5CCN6c7cc(-c8ccccc8O)nnc7NC[C@@H]6C5)n4)CC2)C3)C(C)(C)C)cc1 (single isomer, unassigned) [I-3] |  | 1 to 10 nM | A (A (>500 fold)) |  | > 100 nM |  | > 100 nM | 70 to 90% | 70 to 90% | 50 to 70% |
| Cc1ncsc1-c1ccc(CNC(=O)[C@@H]2C[C@@H](O)CN2C(=O)[C@@H](NC(=O)[C@H]2CC[C@@H](c3ccc(-c4cnc(N5CCN6c7cc(-c8ccccc8O)nnc7NC[C@H]6C5)nc4)cc3)CC2)C(C)(C)C)cc1 [I-86] |  | < 1 nM | C (C (10-100 fold)) |  | < 10 nM |  | 1 to 10 nM | > 90% | > 90% | > 90% |
| C#Cc1ccc(CNC(=O)[C@@H]2C[C@@H](O)CN2C(=O)[C@H](NC(=O)[C@H]2CCC3(CC2)C[C@H](N2CCC(c4cnc(N5CCN6c7cc(-c8ccccc8O)nnc7NC[C@H]6C5)nc4)CC2)C3)C(C)(C)CCO)cc1 (single isomer, unassigned) [I-248] |  | > 100 nM | D (D (<10 fold)) |  | > 100 nM |  | > 100 nM | < 50% | < 50% | < 50% |
| C#Cc1ccc(CNC(=O)[C@@H]2C[C@@H](O)CN2C(=O)C(c2cc(N3CCC(CN4CCC(N5CCC(N6CCN7c8cc(-c9ccccc9O)nnc8NC[C@H]7C6)CC5)CC4)CC3)no2)C(C)C)c(Cl)c1 (stereo partly drawn) [I-325] |  | 1 to 10 nM | C (C (10-100 fold)) |  | 10 to 50 nM |  | 10 to 100 nM | > 90% | > 90% | > 90% |
| C#Cc1ccc(CNC(=O)[C@@H]2C[C@@H](O)CN2C(=O)[C@@H](NC(=O)[C@H]2CC3(CC[C@H](N4CCN(c5cnc(N6CCc7[nH]c8nnc(-c9ccccc9O)cc8c7[C@H]6C)nc5)CC4)CC3)C2)C(C)(C)C)cc1 (single isomer, unassigned) [I-300] | B (B (>70-90% degradation)) | 10 to 100 nM | C (C (10-100 fold)) | A (A (>90% degradation)) | > 100 nM | D (D (<50% degradation)) | > 100 nM |  |  |  |
